Four compounds from US9034894B2, “Derivate, preparation method and use of 10-methoxycamptothecin” (NORTHEAST FORESTRY UNIVERSITY, priority 2011, dated 2015) can be followed below.

The subject of this experiment is ovarian cancer cell line 2774. Nature of the experiment: thiazole blue colorimetric method, half inhibitory concentration on ovarian cancer cell line 2774. It is filed as cell-based.

As for `CCC(=O)OC1(CC)C(=O)OCc2c1cc1n(c2=O)Cc2cc3cc(OC)ccc3nc2-1` (stereo not shown) [10-methoxycamptothecin-20-O-propionate], half-maximal inhibition (IC50) was put at 842 ± 50.1 µM.
To `CCC1(OC(=O)[C@H](C)NC(=O)OC(C)(C)C)C(=O)OCc2c1cc1n(c2=O)Cc2cc3cc(OC)ccc3nc2-1` (stereo partly drawn) [10-methoxycamptothecin-20-O—(N′-t-butoxycarbonyl)-L-alanine ester] belongs 46.7 ± 21.7 µM.
Then `CCC1(OC(=O)[C@H](Cc2ccccc2)NC(=O)OC(C)(C)C)C(=O)OCc2c1cc1n(c2=O)Cc2cc3cc(OC)ccc3nc2-1` (stereo partly drawn) [10-methoxycamptothecin-20-O—(N′-t-butoxycarbonyl)-L-phenylalanine ester], with 394 ± 21.7 µM.
To `CCC1(OC(=O)[C@@H](NC(=O)OC(C)(C)C)C(C)C)C(=O)OCc2c1cc1n(c2=O)Cc2cc3cc(OC)ccc3nc2-1` (stereo partly drawn) [10-methoxycamptothecin-20-O—(N′-t-butoxycarbonyl)-L-valine ester] belongs 1970 ± 93.6 µM.

A word on the IC50: it is the midpoint of a concentration-inhibition curve. Read a low IC50 as inhibition by little substance.
